Tests used:
Assay type in all cases: in vivo
[1] = system: blackgrass (Alopecurus myosuroides); assay: Test B postemergence
In short: (§1)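 Ratings on a 0 to 100 visual scale (100 complete control) compare treated plants with controls 13 to 15 days after application. Treatments were pre- or postemergence sprays of compound in non-phytotoxic solvent with surfactant.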

[2] = system: cocklebur (Xanthium strumarium); assay: Test B postemergence
In short: as §1

[3] = system: crabgrass (Digitaria sanguinalis); assay: Test B postemergence
In short: as §1

[4] = system: Nightshade; assay: Test C preemergence
[5] = system: Surinam grass (Brachiaria decumbens); assay: Test C preemergence; conditions: for Plant response rating (0 to 100), Surinam grass: visual evaluation after 12 to 14 days
In short: (§2)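 Test chemicals, formulated in a non-phytotoxic solvent mixture with surfactant, were applied preemergence to planted seeds or postemergence to plants 2 to 18 cm tall (1- to 4-leaf stage). After 12 to 14 days in a greenhouse, injury was visually rated against untreated controls on a 0–100 scale.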

[6] = system: bermudagrass (Cynodon dactylon); assay: Test C preemergence; conditions: for Plant response rating (0 to 100 where 0 is no effect and 100 is complete control), Bermudagrass: visual evaluation after 12 to 14 days
In short: as §2

[7] = system: cocklebur (Xanthium strumarium); assay: Test C preemergence; conditions: for Plant response rating (0 to 100), Cocklebur: visual evaluation after 12 to 14 days
In short: as §2

[8] = system: corn (Zea mays); assay: Test C preemergence; conditions: for Plant response rating (0 to 100), Corn: visual evaluation after 12 to 14 days
In short: as §2

[9] = system: crabgrass (Digitaria sanguinalis); assay: Test C preemergence; conditions: for Plant response rating (0 to 100), Crabgrass: visual evaluation after 12 to 14 days
In short: as §2

[10] = system: giant foxtail (Setaria faberii); assay: Test C preemergence; conditions: for Plant response rating (0 to 100), Foxtail, Giant: visual evaluation after 12 to 14 days
In short: as §2

[11] = system: goosegrass (Eleusine indica); assay: Test C preemergence; conditions: for Plant response rating (0 to 100), Goosegrass: visual evaluation after 12 to 14 days
In short: as §2

[12] = system: johnsongrass (Sorghum halepense); assay: Test C preemergence; conditions: for Plant response rating (0 to 100), Johnsongrass: visual evaluation after 12 to 14 days
In short: as §2

[13] = system: kochia (Kochia scoparia); assay: Test C preemergence; conditions: for Plant response rating (0 to 100), Kochia: visual evaluation after 12 to 14 days
In short: as §2

[14] = system: lambsquarters (Chenopodium album); assay: Test C preemergence; conditions: for Plant response rating (0 to 100), Lambsquarters: visual evaluation after 12 to 14 days
In short: as §2

[15] = system: morningglory (Ipomoea hederacea); assay: Test C preemergence; conditions: for Plant response rating (0 to 100), Morningglory: visual evaluation after 12 to 14 days
In short: as §2

[16] = system: soybean (Glycine max); assay: Test C preemergence; conditions: for Plant response rating (0 to 100), Soybean: visual evaluation after 12 to 14 days
In short: as §2

[17] = system: yellow nutsedge (Cyperus esculentus); assay: Test C preemergence; conditions: for Plant response rating (0 to 100), Nutsedge: visual evaluation after 12 to 14 days
In short: as §2

[18] = system: Sunflower; assay: Test C preemergence; conditions: scale 0 to 100, 0 no effect, 100 complete control
[19] = system: common ragweed (Ambrosia elatior); assay: Test C preemergence
In short: as §2

[20] = Rate 125 g/ha, scale 0 (no effect) to 100 (complete control), 13 to 15 days
[21] = Rate 500 g/ha, scale 0 to 100, 0 is no effect, 100 is complete control, 13 to 15 days
[22] = Rate 125 g/ha, scale 0 to 100, 0 no effect, 100 complete control
[23] = Preemergence, Rate 500 g/ha, scale 0 to 100
[24] = Rate 62 g/ha, scale 0 to 100, 0 no effect, 100 complete control
[25] = preemergence, Rate 125 g/ha, scale 0 to 100, 0 no effect, 100 complete control
[26] = preemergence, Rate 62 g/ha, scale 0 to 100
[27] = preemergence, Rate 250 g/ha, scale 0 to 100, 0 no effect, 100 complete control

CC(C)(C)c1ccn(C2CCN(c3cccc(C(F)(F)F)c3)C2=S)n1 (stereo not shown) [Compound 22]
Plant response rating, Blackgrass [1, 20]: 0
Plant response rating, Blackgrass [1, 21]: 0
Plant response rating, Cocklebur [2, 20]: 20
Plant response rating, Cocklebur [2, 21]: 20
Plant response rating, Crabgrass [3, 20]: 40
Plant response rating, Crabgrass [3, 21]: 40
Plant response rating, Nightshade ([4]; Rate 62 g/ha; scale 0 to 100, 0 no effect, 100 complete control): 0
Plant response rating, Nightshade [4, 22]: 0
Plant response rating, Nightshade ([4]; Rate 500 g/ha, scale 0 to 100): 80
Plant response rating, Surinam grass [5, 23]: 90
Plant response rating, Surinam grass [5, 24]: 0
Plant response rating (0 to 100), Surinam grass ([5]; preemergence, Rate 250 g/ha): 60
Plant response rating, Surinam grass [5, 25]: 40
Plant response rating, Bermudagrass [6, 23]: 100
Plant response rating, Bermudagrass [6, 24]: 30
Plant response rating (0 to 100 where 0 is no effect and 100 is complete control), Bermudagrass ([6]; preemergence, Rate 250 g/ha): 100
Plant response rating, Bermudagrass [6, 25]: 100
Plant response rating, Cocklebur [7, 23]: 0
Plant response rating, Cocklebur [7, 24]: 0
Plant response rating (0 to 100), Cocklebur ([7]; preemergence, Rate 250 g/ha): 0
Plant response rating, Cocklebur [7, 25]: 0
Plant response rating, Corn [8, 23]: 30
Plant response rating, Corn [8, 24]: 20
Plant response rating (0 to 100), Corn ([8]; preemergence, Rate 250 g/ha): 20
Plant response rating, Corn [8, 25]: 20
Plant response rating, Crabgrass [9, 23]: 100
Plant response rating, Crabgrass [9, 24]: 50
Plant response rating (0 to 100), Crabgrass ([9]; preemergence, Rate 250 g/ha): 100
Plant response rating, Crabgrass [9, 25]: 100
Plant response rating, Foxtail, Giant [10, 23]: 100
Plant response rating, Foxtail, Giant [10, 24]: 30
Plant response rating (0 to 100), Foxtail, Giant ([10]; preemergence, Rate 250 g/ha): 0
Plant response rating, Foxtail, Giant [10, 25]: 0
Plant response rating, Goosegrass [11, 23]: 100
Plant response rating, Goosegrass [11, 24]: 90
Plant response rating (0 to 100), Goosegrass ([11]; preemergence, Rate 250 g/ha): 100
Plant response rating, Goosegrass [11, 25]: 90
Plant response rating, Johnsongrass [12, 23]: 40
Plant response rating, Johnsongrass [12, 24]: 20
Plant response rating (0 to 100), Johnsongrass ([12]; preemergence, Rate 250 g/ha): 40
Plant response rating, Johnsongrass [12, 25]: 30
Plant response rating, Kochia [13, 23]: 100
Plant response rating, Kochia [13, 24]: 100
Plant response rating (0 to 100), Kochia ([13]; preemergence, Rate 250 g/ha): 100
Plant response rating, Kochia [13, 25]: 100
Plant response rating, Lambsquarters [14, 23]: 100
Plant response rating, Lambsquarters [14, 24]: 100
Plant response rating (0 to 100), Lambsquarters ([14]; preemergence, Rate 250 g/ha): 100
Plant response rating, Lambsquarters [14, 25]: 100
Plant response rating, Morningglory [15, 23]: 0
Plant response rating, Morningglory [15, 24]: 0
Plant response rating (0 to 100), Morningglory ([15]; preemergence, Rate 250 g/ha): 0
Plant response rating, Morningglory [15, 25]: 0
Plant response rating, Soybean [16, 23]: 40
Plant response rating, Soybean [16, 24]: 30
Plant response rating (0 to 100), Soybean ([16]; preemergence, Rate 250 g/ha): 40
Plant response rating, Soybean [16, 25]: 40
Plant response rating, Nutsedge [17, 23]: 20
Plant response rating, Nutsedge [17, 24]: 0
Plant response rating (0 to 100), Nutsedge ([17]; preemergence, Rate 250 g/ha): 0
Plant response rating, Nutsedge [17, 25]: 0
Plant response rating, Sunflower ([18]; Rate 125 g/ha): 0

COc1cc(N2CCC(n3ccc(C(C)(C)C)n3)C2=O)ccc1Cl (stereo not shown) [Compound 117]
Plant response rating, Blackgrass [1, 22]: 0
Plant response rating, Blackgrass [1, 21]: 0
Plant response rating, Cocklebur [2, 22]: 90
Plant response rating, Cocklebur [2, 21]: 100
Plant response rating, Crabgrass [3, 22]: 30
Plant response rating, Nightshade ([4]; Rate 62 g/ha, scale 0 to 100): 100
Plant response rating, Nightshade ([4]; Rate 125 g/ha; scale 0 to 100, 0 no effect, 100 complete control): 100
Plant response rating, Nightshade ([4]; Rate 250 g/ha, scale 0 to 100, 0 no effect, 100 complete control): 100
Plant response rating, Surinam grass [5, 22]: 10
Plant response rating, Surinam grass [5, 26]: 10
Plant response rating (0 to 100), Surinam grass ([5]; preemergence, Rate 500 g/ha): 100
Plant response rating, Surinam grass [5, 27]: 75
Plant response rating, Bermudagrass [6, 22]: 100
Plant response rating, Bermudagrass [6, 26]: 100
Plant response rating (0 to 100 where 0 is no effect and 100 is complete control), Bermudagrass ([6]; preemergence, Rate 500 g/ha): 100
Plant response rating, Bermudagrass [6, 27]: 100
Plant response rating, Cocklebur [7, 22]: 10
Plant response rating, Cocklebur [7, 26]: 0
Plant response rating (0 to 100), Cocklebur ([7]; preemergence, Rate 500 g/ha): 85
Plant response rating, Cocklebur [7, 27]: 50
Plant response rating, Ragweed, Common [19, 22]: 100
Plant response rating, Ragweed, Common [19, 26]: 100
Plant response rating (0 to 100), Ragweed, Common ([19]; preemergence, Rate 500 g/ha, visual evaluation after 12 to 14 days): 100
Plant response rating, Ragweed, Common [19, 27]: 100
Plant response rating, Corn [8, 22]: 30
Plant response rating, Corn [8, 26]: 0
Plant response rating (0 to 100), Corn ([8]; preemergence, Rate 500 g/ha): 50
Plant response rating, Corn [8, 27]: 45
Plant response rating, Crabgrass [9, 22]: 100
Plant response rating, Crabgrass [9, 26]: 100
Plant response rating (0 to 100), Crabgrass ([9]; preemergence, Rate 500 g/ha): 100
Plant response rating, Crabgrass [9, 27]: 100
Plant response rating, Foxtail, Giant [10, 22]: 0
Plant response rating, Foxtail, Giant [10, 26]: 100
Plant response rating (0 to 100), Foxtail, Giant ([10]; preemergence, Rate 500 g/ha): 100
Plant response rating, Foxtail, Giant [10, 27]: 100
Plant response rating, Goosegrass [11, 22]: 100
Plant response rating, Goosegrass [11, 26]: 100
Plant response rating (0 to 100), Goosegrass ([11]; preemergence, Rate 500 g/ha): 100
Plant response rating, Goosegrass [11, 27]: 100
Plant response rating, Johnsongrass [12, 22]: 50
Plant response rating, Johnsongrass [12, 26]: 45
Plant response rating (0 to 100), Johnsongrass ([12]; preemergence, Rate 500 g/ha): 90
Plant response rating, Johnsongrass [12, 27]: 50
Plant response rating, Kochia [13, 22]: 100
Plant response rating, Kochia [13, 26]: 90
Plant response rating (0 to 100), Kochia ([13]; preemergence, Rate 500 g/ha): 100
Plant response rating, Kochia [13, 27]: 100
Plant response rating, Lambsquarters [14, 22]: 100
Plant response rating, Lambsquarters [14, 26]: 100
Plant response rating (0 to 100), Lambsquarters ([14]; preemergence, Rate 500 g/ha): 100
Plant response rating, Lambsquarters [14, 27]: 100
Plant response rating, Morningglory [15, 22]: 10
Plant response rating, Morningglory [15, 26]: 0
Plant response rating (0 to 100), Morningglory ([15]; preemergence, Rate 500 g/ha): 100
Plant response rating, Morningglory [15, 27]: 100
Plant response rating, Soybean [16, 22]: 100
Plant response rating, Soybean [16, 26]: 100
Plant response rating (0 to 100), Soybean ([16]; preemergence, Rate 500 g/ha): 100
Plant response rating, Soybean [16, 27]: 100
Plant response rating, Nutsedge [17, 22]: 0
Plant response rating, Nutsedge [17, 26]: 0
Plant response rating (0 to 100), Nutsedge ([17]; preemergence, Rate 500 g/ha): 0
Plant response rating, Nutsedge [17, 27]: 0
Plant response rating, Sunflower ([18]; Rate 250 g/ha): 60

— patent US7138361B2, “Herbicidal heterocycles” (E. I. du Pont de Nemours and Company, priority 2000, dated 2006)
